Test results from patent publication US9708336B2, “Metallo-beta-lactamase inhibitors” (priority 2014, dated 2017).
Like-named read-outs stand apart in the source and are kept apart here.

Columns and labels:
NDM-1 = NDM-1 (Klebsiella pneumoniae, UniProt C7C422); experiment: biochemical; type: biochemical; conditions: read-out: NDM-1 IC50
IMP-1 = IMP-1 (Serratia marcescens, UniProt P52699); experiment: biochemical; type: biochemical; conditions: read-out: IMP-1 IC50
VIM-1 = VIM-1 (Pseudomonas aeruginosa (strain ATCC 15692 / DSM 22644 / CIP 104116 / JCM 14847 / LMG 12228 / 1C / PRS 101 / PAO1), UniProt A0A0F7KYQ8); experiment: Enzyme activity: determination of IC50, fluorescence assay with CCF2-FA substrate (VIM-1); type: biochemical
[1] = tested on: Escherichia coli expressing NDM-1 (CLB30016); experiment: Antibiotic potentiation activity: synergistic concentration (MITC95) with imipenem, OD600 growth; type: cell-based; conditions: for Escherichia coli expressing NDM-1 (CLB 30016) MITC95: concentration giving 95% inhibition of bacterial growth
Outline: (§1)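 Absorbance after a 22–24 h, 35 °C incubation served as the read-out. Wells held bacteria (saline suspension diluted 1:100 into 1.1× CAMHB), imipenem at 4 μg/ml final or optionally 1 μg/ml, and test compound.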

[2] = tested on: Klebsiella pneumoniae expressing VIM-1 (IHMA599644); experiment: as above; type: cell-based; conditions: for Klebsiella pneumoniae expressing VIM-1 (IHMA 599644) MITC95: concentration giving 95% inhibition of bacterial growth
Outline: as §1

[3] = tested on: Serratia marcescens expressing IMP-1 (CL5741); experiment: as above; type: cell-based; conditions: for Serratia marcescens expressing IMP-1 (CL5741) MITC95: concentration giving 95% inhibition of bacterial growth
Outline: as §1

[4] = fluorescence assay with CCF2-FA substrate
[5] = fluorescence assay with CCF2-FA substrate, read-out: VIM-1 IC50
[6] = NDM-1 enzyme, CCF2-FA fluorescence assay
[7] = IMP-1 enzyme, CCF2-FA fluorescence assay
[8] = VIM-1 enzyme, CCF2-FA fluorescence assay, read-out: VIM-1 IC50
[9] = Escherichia coli expressing NDM-1 (CLB30016), 95% growth inhibition
[10] = Klebsiella pneumoniae expressing VIM-1 (IHMA599644), 95% growth inhibition
[11] = Serratia marcescens expressing IMP-1 (CL5741), 95% growth inhibition
[12] = VIM-1 IC50, fluorescence assay with CCF2-FA substrate
[13] = NDM-1 enzyme, CCF2-FA substrate
[14] = IMP-1 enzyme, CCF2-FA substrate
[15] = VIM-1 IC50, VIM-1 enzyme, CCF2-FA substrate
[16] = (CLB30016, NDM-1), 95% growth inhibition
[17] = Klebsiella pneumoniae IHMA599644 (VIM-1), 95% growth inhibition
[18] = Serratia marcescens CL5741 (IMP-1), 95% growth inhibition
[19] = VIM-1 enzyme, CCF2-FA substrate, read-out: VIM-1 IC50
[20] = CLB30016 (NDM-1), 95% inhibition of bacterial growth
[21] = IHMA599644 (VIM-1), 95% inhibition of bacterial growth
[22] = CL5741 (IMP-1), 95% inhibition of bacterial growth

NDM-1, sequence (C7C422 whole entry, looked up, species assumed): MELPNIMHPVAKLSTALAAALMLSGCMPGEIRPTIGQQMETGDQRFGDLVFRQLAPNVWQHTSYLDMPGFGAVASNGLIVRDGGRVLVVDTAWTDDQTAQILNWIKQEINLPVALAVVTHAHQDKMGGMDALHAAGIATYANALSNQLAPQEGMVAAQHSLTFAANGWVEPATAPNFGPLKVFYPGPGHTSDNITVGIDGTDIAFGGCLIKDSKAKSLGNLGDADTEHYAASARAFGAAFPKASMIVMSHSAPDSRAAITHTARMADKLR
IMP-1, sequence (P52699 whole entry, looked up): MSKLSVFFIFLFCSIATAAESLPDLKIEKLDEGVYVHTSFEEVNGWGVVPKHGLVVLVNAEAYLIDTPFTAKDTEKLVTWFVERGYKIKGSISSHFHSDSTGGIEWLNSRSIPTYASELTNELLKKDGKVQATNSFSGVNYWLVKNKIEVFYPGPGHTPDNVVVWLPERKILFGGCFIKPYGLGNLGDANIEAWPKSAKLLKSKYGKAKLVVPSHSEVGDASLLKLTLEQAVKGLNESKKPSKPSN

Structure (SMILES) | IC50 (NDM-1; [4]) [nM] | IC50 (IMP-1; [4]) [nM] | IC50 (NDM-1; [6]) [nM] | IC50 (IMP-1; [7]) [nM] | IC50 (VIM-1; [8]) [nM] | Escherichia coli MITC95 [1, 9] [µM] | Klebsiella pneumoniae MITC95 [2, 10] [µM] | Serratia marcescens MITC95 [3, 11] [µM] | IC50 (NDM-1; [13]) [nM] | IC50 (IMP-1; [14]) [nM] | Escherichia coli MITC95 [1, 16] [µM] | Klebsiella pneumoniae MITC95 [2, 17] [µM] | Serratia marcescens MITC95 [3, 18] [µM] | also measured
NS(=O)(=O)c1cccc(C2CC2)c1-c1nnn[nH]1 [Example 157, 3-cyclopropyl-2-(1H-tetrazol-5-yl)benzenesulfonamide] | 28.7 | 561 | – | – | – | – | – | – | – | – | – | – | – | IC50 (VIM-1; [5]): 1050 nM; Escherichia coli expressing NDM-1 (CLB 30016) MITC95 [1]: 0.3906 µM; Klebsiella pneumoniae expressing VIM-1 (IHMA 599644) MITC95 [2]: 50 µM; Serratia marcescens expressing IMP-1 (CL5741) MITC95 [3]: 6.25 µM
NS(=O)(=O)c1c(CC2(F)CCNC2)ccc(-c2ccc(C3CCNCC3)cc2)c1-c1nn[nH]n1 (stereo not drawn) [Example 467, 4-((3-fluoropyrrolidin-3-yl)methyl)-4′-(piperidin-4-yl)-2-(2H-tetrazol-5-yl)-[1,1′-biphenyl]-3-sulfonamide] | – | – | 10.2 | 34.8 | 4.75 | 0.7813 | 1.563 | 1.563 | – | – | – | – | – | –
Cc1cccc(Cc2cccc(S(N)(=O)=O)c2-c2nnn[nH]2)c1 [Example 158, 3-(3-methylbenzyl)-2-(1H-tetrazol-5-yl)benzenesulfonamide] | 16 | 387 | – | – | – | – | – | – | – | – | – | – | – | IC50 (VIM-1; [12]): 352 nM; Escherichia coli expressing NDM-1 (CLB 30016) MITC95 [1]: 3.125 µM; Klebsiella pneumoniae expressing VIM-1 (IHMA 599644) MITC95 [2]: 200 µM; Serratia marcescens expressing IMP-1 (CL5741) MITC95 [3]: 12.5 µM
Nc1ccnc2ccc(-c3ccc(C(F)(F)F)c(S(N)(=O)=O)c3-c3nnn[nH]3)cc12 [Example 479, 3-(4-amino-6-quinolyl)-2-(1H-tetrazol-5-yl)-6-(trifluoromethyl)benzenesulfonamide] | – | – | 6.66 | 30.3 | 0.373 | 0.3906 | 0.7813 | 1.563 | – | – | – | – | – | –
NC1CCC(N[C@H]2CC[C@H](c3ccc(C(F)(F)F)c(S(N)(=O)=O)c3-c3nnn[nH]3)CC2)CC1 (stereo partly drawn) [Example 701, 3-{4-[(4-aminocyclohexyl)amino]cyclohexyl}-2-(1H-tetrazol-5-yl)-6-(trifluoromethyl)benzene sulfonamide] | – | – | – | – | – | – | – | – | 15.4 | 62.9 | 0.7813 | 6.25 | 3.125 | IC50 (VIM-1; [15]): 12.7 nM
Cc1cccc(S(N)(=O)=O)c1-c1nnn[nH]1 [Example 150, 3-methyl-2-(1H-tetrazol-5-yl)benzenesulfonamide] | 148 | 1940 | – | – | – | – | – | – | – | – | – | – | – | IC50 (VIM-1; [5]): 5650 nM; Escherichia coli expressing NDM-1 (CLB 30016) MITC95 [1]: 0.7813 µM; Klebsiella pneumoniae expressing VIM-1 (IHMA 599644) MITC95 [2]: 200 µM; Serratia marcescens expressing IMP-1 (CL5741) MITC95 [3]: 6.25 µM
NC(=O)c1ccc(-c2ccc(C(F)(F)F)c(S(N)(=O)=O)c2-c2nn[nH]n2)cn1 [Example 527, 5-(3-Sulfamoyl-2-(2H-tetrazol-5-yl)-4-(trifluoromethyl)phenyl)picolinamide] | – | – | – | – | – | – | – | – | 7.03 | 10.6 | 6.25 | 12.5 | 12.5 | IC50 (VIM-1; [19]): 2.89 nM
NS(=O)(=O)c1c(C(F)(F)F)ccc(-c2ccc(S(=O)(=O)CCO)cc2)c1-c1nnn[nH]1 [Example 742, 4′-[(2-hydroxyethyl)sulfonyl]-2-(1H-tetrazol-5-yl)-4-(trifluoromethyl)biphenyl-3-sulfonamide] | – | – | – | – | – | – | – | – | 2.01 | 1.84 | 12.5 | 25 | 12.5 | IC50 (VIM-1; [19]): 0.657 nM
NS(=O)(=O)c1c(C(F)(F)F)ccc(-c2ccc(C3CCN(C4CC5CCC4N5)CC3)cc2)c1-c1nnn[nH]1 (stereo not drawn) [Example 788, 4′-[1-(7-azabicyclo[2.2.1]hept-2-yl)piperidin-4-yl]-2-(1H-tetrazol-5-yl)-4-(trifluoromethyl)biphenyl-3-sulfonamide] | 2.83 | 0.438 | – | – | – | – | – | – | – | – | – | – | – | IC50 (VIM-1; [12]): 35.7 nM; Escherichia coli MITC95 [1, 20]: 6.25 µM; Klebsiella pneumoniae MITC95 [2, 21]: >200 µM; Serratia marcescens MITC95 [3, 22]: 6.25 µM
CCC(CO)NCc1ccc(-c2cccc(S(N)(=O)=O)c2-c2nnn[nH]2)cc1 (stereo in doubt) [Example 345, 4′-({[(1S)-1-(hydroxymethyl)propyl]amino}methyl)-2-(1H-tetrazol-5-yl)biphenyl-3-sulfonamide] | – | – | 18.5 | 213 | 269 | 1.563 | 50 | 4.688 | – | – | – | – | – | –
NC(=O)C1CCN(Cc2ccc(-c3cccc(S(N)(=O)=O)c3-c3nnn[nH]3)cc2)C1 (stereo not drawn) [Example 337, 1-((3′-sulfamoyl-2′-(1H-tetrazol-5-yl)-[1,1′-biphenyl]-4-yl)methyl)pyrrolidine-3-carboxamide] | – | – | 4.38 | 69.8 | 321 | 0.3906 | 75 | 2.344 | – | – | – | – | – | –
NS(=O)(=O)c1c(C(F)(F)F)ccc(N2CCN(CCO)CC2)c1-c1nnn[nH]1 [Example 759, 3-[4-(2-hydroxyethyl)piperazin-1-yl]-2-(1H-tetrazol-5-yl)-6-(trifluoromethyl) benzenesulfonamide] | 22.5 | 40.9 | – | – | – | – | – | – | – | – | – | – | – | IC50 (VIM-1; [5]): 45.6 nM; Escherichia coli MITC95 [1, 20]: 3.125 µM; Klebsiella pneumoniae MITC95 [2, 21]: 12.5 µM; Serratia marcescens MITC95 [3, 22]: 3.125 µM
NS(=O)(=O)c1c(C(F)(F)F)ccc(-c2ccc(OC3CNC3)cc2)c1-c1nnn[nH]1 [Example 719, 4′-(azetidin-3-yloxy)-2-(1H-tetrazol-5-yl)-4-(trifluoromethyl)biphenyl-3-sulfonamide] | – | – | – | – | – | – | – | – | 3.04 | 3.68 | 3.125 | 3.125 | 3.125 | IC50 (VIM-1; [15]): 0.553 nM
Nc1nc2ccc(-c3ccc(C(F)(F)F)c(S(N)(=O)=O)c3-c3nnn[nH]3)cc2s1 [Example 549, 3-(2-amino-1,3-benzothiazol-6-yl)-2-(1H-tetrazol-5-yl)-6-(trifluoromethyl)benzenesulfonamide] | – | – | – | – | – | – | – | – | 0.256 | 0.472 | 1.563 | 6.25 | 3.125 | IC50 (VIM-1; [15]): 0.0629 nM
NS(=O)(=O)c1cccc(-c2ccc(CNCCO)cc2)c1-c1nnn[nH]1 [Example 390, 4′-{[(2-hydroxyethyl)amino]methyl}-2-(1H-tetrazol-5-yl)biphenyl-3-sulfonamide] | – | – | 12.2 | 483 | 222 | 0.7813 | 62.5 | 6.25 | – | – | – | – | – | –
NS(=O)(=O)c1c(C(F)(F)F)ccc(N2CCC3(CCNC3)CC2)c1-c1nnn[nH]1 [Example 775, 3-(2,8-diazaspiro[4.5]dec-8-yl)-2-(1H-tetrazol-5-yl)-6-(trifluoromethyl) benzenesulfonamide] | 9.04 | 35.8 | – | – | – | – | – | – | – | – | – | – | – | IC50 (VIM-1; [5]): 5.19 nM; Escherichia coli MITC95 [1, 20]: 3.125 µM; Klebsiella pneumoniae MITC95 [2, 21]: 12.5 µM; Serratia marcescens MITC95 [3, 22]: 6.25 µM
NC[C@H]1CC[C@H](c2ccc(CCC3CCNCC3)c(S(N)(=O)=O)c2-c2nnn[nH]2)CC1 [Example 591, 3-((1r,4r)-4-(aminomethyl)cyclohexyl)-6-(2-(piperidin-4-yl)ethyl)-2-(1H-tetrazol-5-yl)benzenesulfonamide] | – | – | – | – | – | – | – | – | 16 | 320 | 1.563 | 25 | 6.25 | IC50 (VIM-1; [19]): 574 nM
Nc1[nH]nc2cc(-c3cccc(S(N)(=O)=O)c3-c3nnn[nH]3)ccc12 [Example 131, 3-(3-amino-2H-indazol-6-yl)-2-(1H-tetrazol-5-yl)benzenesulfonamide] | 0.7 | 187 | – | – | – | – | – | – | – | – | – | – | – | IC50 (VIM-1; [5]): 16.9 nM; Escherichia coli expressing NDM-1 (CLB 30016) MITC95 [1]: 0.7813 µM; Klebsiella pneumoniae expressing VIM-1 (IHMA 599644) MITC95 [2]: 3.125 µM; Serratia marcescens expressing IMP-1 (CL5741) MITC95 [3]: 3.125 µM
NS(=O)(=O)c1cccc(-c2ccc(CNCCc3ncc[nH]3)cc2)c1-c1nnn[nH]1 [Example 382, 4′-({[2-(1H-imidazol-2-yl)ethyl]amino}methyl)-2-(1H-tetrazol-5-yl)biphenyl-3-sulfonamide] | – | – | 12.8 | 212 | 220 | 1.563 | 50 | 3.125 | – | – | – | – | – | –
